Measured values published in the supplement of paper PMC13380429.

Columns and labels:
Conditions in all cases: 72 h
[1] = test system: HepG2; assay: cell viability relative to DMSO; higher = less toxic
[2] = test system: Calu-3; assay: as above
[3] = test system: Vero E6; assay: as above
[4] = test system: U2OS; assay: as above
[5] = test system: Caco-2; assay: as above
[6] = test system: Calu-3; assay: relative viability EC50 (midpoint between 100% and the lowest measured viability); higher = less toxic
[7] = test system: Vero E6; assay: as above
[8] = test system: U2OS; assay: as above
[9] = test system: HepG2; assay: drug sensitivity score (DSS) for viability; higher = more toxic; extreme values may be limits of the assay
[10] = test system: Calu-3; assay: as above
[11] = test system: Vero E6; assay: as above
[12] = test system: U2OS; assay: as above
[13] = test system: Caco-2; assay: as above
[14] = test system: HepG2; assay: relative viability EC50 (midpoint between 100% and the lowest measured viability); higher = less toxic

| Compound | cell viability ([1]; 1 nM) | cell viability ([1]; 10 nM) | cell viability ([1]; 100 nM) | cell viability ([1]; 1000 nM) | cell viability ([1]; 10000 nM) | cell viability ([2]; 1 nM) | cell viability ([2]; 10 nM) | cell viability ([2]; 100 nM) | cell viability ([2]; 1000 nM) | cell viability ([2]; 10000 nM) | cell viability ([3]; 1 nM) | cell viability ([3]; 10 nM) | cell viability ([3]; 100 nM) | cell viability ([3]; 1000 nM) | cell viability ([3]; 10000 nM) | cell viability ([4]; 1 nM) | cell viability ([4]; 10 nM) | cell viability ([4]; 100 nM) | cell viability ([4]; 1000 nM) | cell viability ([4]; 10000 nM) | cell viability ([5]; 1 nM) | cell viability ([5]; 10 nM) | cell viability ([5]; 100 nM) | cell viability ([5]; 1000 nM) | cell viability ([5]; 10000 nM) | relative viability EC50 [6] | relative viability EC50 [7] | relative viability EC50 [8] | drug sensitivity score [9] | drug sensitivity score [10] | drug sensitivity score [11] | drug sensitivity score [12] | drug sensitivity score [13] | relative viability EC50 [14] |
| --- | --- | --- | --- | --- | --- | --- | --- | --- | --- | --- | --- | --- | --- | --- | --- | --- | --- | --- | --- | --- | --- | --- | --- | --- | --- | --- | --- | --- | --- | --- | --- | --- | --- | --- |
| CC(C)c1noc(N2CCC(COc3ccc(-c4ccc(S(C)(=O)=O)cc4)nc3)CC2)n1 | 97.1% | 106% | 109% | 97.3% | 50.9% | 96.4% | 101% | 92.4% | 94.4% | 106% | 98% | 100% | 98.8% | 89.3% | 103% | 99.3% | 94.1% | 97.6% | 100% | 101% | 92.5% | 93.5% | 101% | 95.6% | 72.5% | > 10 µM | > 10 µM | > 10 µM | 2.9 | 0 | 0 | 0 | 1.8 | – |
| CCn1c(-c2nonc2N)nc2c(C#CC(C)(C)O)ncc(OC[C@H]3CCCNC3)c21 | 94.8% | 98.1% | 96.5% | 94.5% | 99.4% | 102% | 98.2% | 92.2% | 69.5% | 73.5% | 96.5% | 96% | 95.5% | 95.1% | 111% | 96.3% | 93.3% | 98.1% | 87.5% | 85.9% | 92.9% | 86.7% | 101% | 72.1% | 69.3% | – | > 10 µM | > 10 µM | 0 | 6.3 | 0 | 0.3 | 4.7 | > 10 µM |
| COc1ccc(CCCO[C@@H](Cn2ccnc2)c2ccc(OC)cc2)cc1 | 101% | 104% | 95.4% | 106% | 34% | – | – | – | – | – | 94.5% | 104% | 96.5% | 98% | 50.1% | 97.4% | 96.7% | 99.3% | 99.4% | 35.9% | 93.4% | 95% | 100% | 93.5% | 52.6% | – | – | 3.1 µM | 3.2 | – | 2.9 | 3.6 | 3.6 | 3.59 µM |
| Cc1cc(I)ccc1Nc1c(C(=O)NOCC2CC2)cc(F)c(F)c1F | 88.7% | 107% | 94% | 55.5% | 21.1% | 97.2% | 100% | 103% | 80.3% | 45.1% | 89.6% | 100% | 90.4% | 77% | 52.6% | 100% | 97.1% | 99.8% | 89.6% | 74.7% | 93.3% | 99.5% | 98.3% | 75% | 54.8% | 1.26 µM | – | – | 9.7 | 5.7 | 5.2 | 2.3 | 5.2 | 0.814 µM |
| C[C@@H]1CCCN1CCc1cc2cc(-c3ccc(C#N)cc3)ccc2o1 [ABT-239] | 105% | 92.9% | 94.8% | 90.9% | 75.9% | 95.5% | 96.1% | 106% | 111% | 58.9% | 89.8% | 94.9% | 92% | 91.2% | 91.8% | 96.3% | 101% | 97.9% | 102% | 87% | 86.8% | 106% | 93.4% | 97.2% | 68.1% | – | > 10 µM | > 10 µM | 1.4 | 1.5 | 0 | 0.1 | 1.9 | > 10 µM |
| COc1ccc(C(=O)c2c(C)n(CCN3CCOCC3)c3cc(I)ccc23)cc1 [AM-630] | 93.3% | 82.5% | 104% | 94.3% | 91.6% | 92.9% | 102% | 104% | 102% | 92.9% | 97.8% | 96.5% | 102% | 100% | 97% | 96.2% | 101% | 97.2% | 98.5% | 94.1% | 97.3% | 113% | 81.1% | 94.2% | 69.7% | > 10 µM | > 10 µM | > 10 µM | 0 | 0 | 0 | 0 | 2.1 | > 10 µM |
| Cc1[nH]nc(C(F)(F)F)c1Cc1sc2c(c1C(=O)N1C[C@](C)(O)CO1)c(=O)n(C)c(=O)n2C(C)C [AZD3965] | 99.4% | 89.2% | 99.3% | 93.3% | 101% | 93.6% | 101% | 101% | 103% | 107% | 99.8% | 97.5% | 101% | 92.9% | 97.4% | 99.8% | 95.3% | 89% | 92% | 89.2% | 92.9% | 79.5% | 74.9% | 72% | 76.5% | > 10 µM | > 10 µM | > 10 µM | 0 | 0 | 0 | 0.6 | 10.1 | > 10 µM |
